Laboratory results reported in ChEMBL document CHEMBL1201862, “PubChem BioAssay data set” (2004).
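Each compound was tested at five concentrations against cells in 96-well plates for 48 hours. At the GI50, growth is halved.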 The source made the active and inactive calls. Rule as the data show it: active = GI50 up to about 1.1 µM and inactive = higher.

How the values were obtained:
Assay in all cases: NCI tumour cell line growth inhibition, 48 h
[1] = system: IGROV-1
[2] = system: OVCAR-3
[3] = system: HL-60
[4] = system: SK-MEL-28
[5] = system: SF-295
[6] = system: M14
[7] = system: ACHN
[8] = system: SN12C
[9] = system: K562
[10] = system: DU-145
[11] = system: UACC-62
[12] = system: SF-539
[13] = system: RXF 393
[14] = system: A498
[15] = system: MDA-MB-435
[16] = system: SNB-75
[17] = system: NCI-H522
[18] = system: A549
[19] = system: HOP-92
[20] = system: UO-31

For `O=C(CN1CCOCC1)c1ccc2c(c1)oc(=O)n2CCN1CCCC1`, the GI50 [1] was > 100 µM (inactive), the GI50 [2] was > 100 µM (inactive) and the GI50 [3] was > 100 µM (inactive). The GI50 [4] was > 100 µM (inactive), the GI50 [5] was > 100 µM (inactive) and the GI50 [6] was > 100 µM (inactive). The GI50 [7] was > 100 µM (inactive), the GI50 [8] was > 100 µM (inactive) and the GI50 [9] was > 100 µM (inactive). The GI50 [10] was > 100 µM (inactive), the GI50 [11] was > 100 µM (inactive) and the GI50 [12] was > 100 µM (inactive). For the same compound, the GI50 [13] was > 100 µM (inactive), the GI50 [14] was > 100 µM (inactive) and the GI50 [15] was > 100 µM (inactive). For the same compound, the GI50 [16] was > 100 µM (inactive).

With `COc1ccc(C2SC(=N)Nc3c2c(C)nn3C(=O)c2ccc(Cl)cc2)cc1` (centres undefined) the GI50 [1] was > 10 µM (inactive), the GI50 [2] was > 10 µM (inactive) and the GI50 [3] was > 10 µM (inactive). For the same compound, the GI50 [4] was > 10 µM (inactive), the GI50 [5] was > 10 µM (inactive) and the GI50 [17] was > 10 µM (inactive). For the same compound, the GI50 [18] was > 10 µM (inactive), the GI50 [6] was > 10 µM (inactive) and the GI50 [7] was > 10 µM (inactive). The GI50 [8] was > 10 µM (inactive), the GI50 [9] was > 10 µM (inactive) and the GI50 [10] was > 10 µM (inactive). The GI50 [11] was > 10 µM (inactive), the GI50 [12] was > 10 µM (inactive) and the GI50 [13] was > 10 µM (inactive). The GI50 [19] was > 10 µM (inactive), the GI50 [15] was > 10 µM (inactive) and the GI50 [16] was > 10 µM (inactive).

With `CCOC(=O)N/N=C(\Cc1ccc([N+](=O)[O-])cc1)OCC` the GI50 [1] was > 100 µM (inactive), the GI50 [2] was > 100 µM (inactive) and the GI50 [5] was > 100 µM (inactive). The GI50 [17] was > 100 µM (inactive), the GI50 [18] was > 100 µM (inactive) and the GI50 [6] was > 100 µM (inactive). The GI50 [7] was > 100 µM (inactive), the GI50 [8] was > 100 µM (inactive) and the GI50 [9] was > 100 µM (inactive). The GI50 [10] was > 100 µM (inactive), the GI50 [11] was > 100 µM (inactive) and the GI50 [12] was > 100 µM (inactive). The GI50 [13] was > 100 µM (inactive), the GI50 [19] was > 100 µM (inactive) and the GI50 [20] was > 100 µM (inactive). The GI50 [15] was > 100 µM (inactive) and the GI50 [16] was > 100 µM (inactive).

`O=Cc1cc(C(=O)OCc2ccccc2)n(S(=O)(=O)c2ccccc2)c1` was tested, and the GI50 [1] was 25.9 µM (inactive), the GI50 [2] was 18.7 µM (inactive) and the GI50 [3] was 5.75 µM (inactive). The GI50 [4] was 12.8 µM (inactive), the GI50 [5] was 14.4 µM (inactive) and the GI50 [17] was 40.4 µM (inactive). The GI50 [18] was 25.8 µM (inactive), the GI50 [6] was 14.8 µM (inactive) and the GI50 [7] was 15.6 µM (inactive). For the same compound, the GI50 [8] was 26.3 µM (inactive), the GI50 [9] was 4.51 µM (inactive) and the GI50 [10] was 37 µM (inactive). For the same compound, the GI50 [11] was 11 µM (inactive), the GI50 [12] was 12.7 µM (inactive) and the GI50 [13] was 33.7 µM (inactive). The GI50 [20] was 12.6 µM (inactive), the GI50 [15] was 2.29 µM (inactive) and the GI50 [16] was 23.1 µM (inactive).

For `C1CSCCSS[C@@H]2CCCCC2SC1` (some centres undefined), the GI50 [1] was > 100 µM (inactive), the GI50 [2] was > 100 µM (inactive) and the GI50 [3] was 56.6 µM (inactive). The GI50 [4] was > 100 µM (inactive), the GI50 [5] was > 100 µM (inactive) and the GI50 [17] was > 100 µM (inactive). For the same compound, the GI50 [18] was > 100 µM (inactive), the GI50 [6] was > 100 µM (inactive) and the GI50 [8] was > 100 µM (inactive). The GI50 [9] was > 100 µM (inactive), the GI50 [10] was > 100 µM (inactive) and the GI50 [11] was > 100 µM (inactive). The GI50 [12] was > 100 µM (inactive), the GI50 [19] was 29.2 µM (inactive) and the GI50 [20] was 78.9 µM (inactive). The GI50 [15] was > 100 µM (inactive) and the GI50 [16] was > 100 µM (inactive).

With `COc1ccc([C@@]23OC[C@@H]4[C@@H](OC[C@@H]42)c2cc(OC)c(OC)cc23)cc1OC` the GI50 [1] was > 100 µM (inactive), the GI50 [2] was > 100 µM (inactive) and the GI50 [3] was > 100 µM (inactive). The GI50 [4] was > 100 µM (inactive), the GI50 [5] was > 100 µM (inactive) and the GI50 [17] was > 100 µM (inactive). The GI50 [18] was > 100 µM (inactive), the GI50 [6] was > 100 µM (inactive) and the GI50 [7] was > 100 µM (inactive). The GI50 [9] was > 100 µM (inactive), the GI50 [10] was > 100 µM (inactive) and the GI50 [11] was > 100 µM (inactive). For the same compound, the GI50 [12] was > 100 µM (inactive), the GI50 [13] was > 100 µM (inactive) and the GI50 [14] was > 100 µM (inactive). The GI50 [20] was > 100 µM (inactive), the GI50 [15] was > 100 µM (inactive) and the GI50 [16] was > 100 µM (inactive).

For `Cc1cccc(/C=N/NC(=S)Nc2ccc(Cl)cc2)n1`, the GI50 [1] was 0.811 µM (active), the GI50 [2] was 0.968 µM (active) and the GI50 [4] was 3.39 µM (inactive). For the same compound, the GI50 [5] was 2.02 µM (inactive), the GI50 [17] was 0.177 µM (active) and the GI50 [18] was 1.93 µM (inactive). The GI50 [6] was 1.08 µM (active), the GI50 [7] was 1.12 µM (active) and the GI50 [8] was 3.4 µM (inactive). For the same compound, the GI50 [9] was 0.329 µM (active), the GI50 [10] was 3.31 µM (inactive) and the GI50 [11] was 0.643 µM (active). For the same compound, the GI50 [12] was 2.52 µM (inactive), the GI50 [19] was 3 µM (inactive) and the GI50 [20] was 1.87 µM (inactive). The GI50 [15] was 0.205 µM (active) and the GI50 [16] was 0.741 µM (active).

`COc1ccc(-c2cc3c(c4cc(OC)ccc24)C(=O)OC3=O)cc1` was tested, and the GI50 [1] was > 100 µM (inactive), the GI50 [2] was > 100 µM (inactive) and the GI50 [3] was > 100 µM (inactive). The GI50 [4] was > 100 µM (inactive), the GI50 [5] was > 100 µM (inactive) and the GI50 [17] was > 100 µM (inactive). The GI50 [18] was > 100 µM (inactive), the GI50 [6] was > 100 µM (inactive) and the GI50 [7] was > 100 µM (inactive). For the same compound, the GI50 [8] was > 100 µM (inactive), the GI50 [9] was > 100 µM (inactive) and the GI50 [10] was > 100 µM (inactive). The GI50 [11] was > 100 µM (inactive), the GI50 [13] was > 100 µM (inactive) and the GI50 [19] was 87.3 µM (inactive). The GI50 [20] was 95.5 µM (inactive), the GI50 [15] was 68.4 µM (inactive) and the GI50 [16] was 68.1 µM (inactive).
